Data on seven compounds can be found in patent US11976083B2, “Inhibitors of peptidylarginine deiminases” (Gilead Sciences, Inc., priority 2020, dated 2024).

The test concerns the target T1, human PAD4 (Homo sapiens, UniProt Q9UM07).
T1 construct: human PAD4 (NM_012387), A2-P663, was PCR amplified; His-SUMO (N, cleaved yes); made in house; host or cells: E. coli BL21(DE3)
Put plainly: In vitro PAD4 BAEE biochemical assay. Conditions: BAEE substrate 3 mM, 5 nM PAD4, 2 mM calcium chloride; geometric mean of multiple experiments. The gist of the method:
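Recombinant PAD4 (5 nM final) with 2 mM CaCl2 was preincubated with compound for 30 min at 25 °C in MOPS pH 7.6 buffer with DTT, then reacted with 3 mM BAEE for 2 h at 25 °C. Released ammonia was detected fluorimetrically with o-phthalaldehyde/DTT; IC50 from four-parameter fit, geometric mean of experiments.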

T1 sequence (Q9UM07 2-663): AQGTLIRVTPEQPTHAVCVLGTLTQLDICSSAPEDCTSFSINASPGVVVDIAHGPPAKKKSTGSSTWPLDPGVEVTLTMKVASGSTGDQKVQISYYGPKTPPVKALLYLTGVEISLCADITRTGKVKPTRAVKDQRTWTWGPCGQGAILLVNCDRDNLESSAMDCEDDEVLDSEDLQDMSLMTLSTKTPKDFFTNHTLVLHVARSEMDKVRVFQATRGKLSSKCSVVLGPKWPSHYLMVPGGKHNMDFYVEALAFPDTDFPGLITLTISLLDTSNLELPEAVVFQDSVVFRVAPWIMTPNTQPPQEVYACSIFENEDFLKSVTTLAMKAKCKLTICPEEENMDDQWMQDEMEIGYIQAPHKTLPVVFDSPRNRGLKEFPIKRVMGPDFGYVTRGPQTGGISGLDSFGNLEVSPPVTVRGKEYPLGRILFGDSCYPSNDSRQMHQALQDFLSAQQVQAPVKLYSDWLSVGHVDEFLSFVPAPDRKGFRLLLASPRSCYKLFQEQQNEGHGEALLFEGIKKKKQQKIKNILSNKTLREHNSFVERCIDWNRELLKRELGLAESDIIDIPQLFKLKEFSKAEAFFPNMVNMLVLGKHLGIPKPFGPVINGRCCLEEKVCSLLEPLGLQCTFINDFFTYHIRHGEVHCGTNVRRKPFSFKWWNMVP

`COc1cc(C(=O)N[C@H]2CNCC[C@H]2O)cc2nc(-c3cc4ccc5nc4n3CCCCCCC(C)(C)C(=O)N[C@@H]5C)n(C)c12` [Example 295, ~{N}-[(3~{S},4~{R})-4-hydroxy-3-piperidyl]-7-methoxy-1-methyl-2-[(11~{R})-8,8,11-trimethyl-9-oxo-1,10,19-triazatricyclo[10.5.2.0^{15,18}]nonadeca-12(19),13,15(18),16-tetraen-17-yl]benzimidazole-5-carboxamide]: the IC50 is 3350 nM.

Regarding `COc1cc(C(=O)N2[C@H]3CC[C@@H]2[C@H](N)C3)cc2nc(-c3cc4ccc5nc4n3C[C@H]3C[C@H]3CCCCC(=O)N[C@@H]5C)n(C)c12` [Example 144, (3~{S),5~{R},12~{R})-18-[5-[(1~{R},2~{R},4~{S})-2-amino-7-azabicyclo[2.2.1]heptane-7-carbonyl]-7-methoxy-1-methyl-benzimidazol-2-yl]-12-methyl-1,11,20-triazatetracyclo[11.5.2.0^{3,5}.0^{16,19}] icosa-13(20),14,16(19),17-tetraen-10-one], the concentration for half-maximal inhibition (IC50) was 31 nM.

`COc1cc(C(=O)N2C[C@H](N)[C@@H]3CC[C@H]2C3)cc2nc(-c3cc4ccc5nc4n3CCCCC[C@]3(F)C[C@H]3C(=O)N[C@@H]5C)n(C3CC3)c12` [Example 816, (2~{R},5~{S},7~{S})-14-[5-[(1~{S},4~{R},5~{R})-4-amino-2-azabicyclo[3.2.1]octane-2-carbonyl]-1-cyclopropyl-7-methoxy-benzimidazol-2-yl]-7-fluoro-2-methyl-3,13,19-triazatetracyclo[11.5.2.0^ {5,7}.0^{16,20}]icosa-1 (18),14,16,19-tetraen-4-one]: the IC50 is 19 nM.

With `COc1cc(C(=O)N2CCC[C@@H](N)C2)cc2nc(-c3cc4ccc5nc4n3CCC3(CC3)COCCC(=O)N[C@@H]5C)c(C)n12` [Example 303, (11~{R})-17-[7-[(3~{R})-3-aminopiperidine-1-carbonyl]-5-methoxy-3-methyl-imidazo[1,2-a]pyridin-2-yl]-11-methyl-spiro[6-oxa-1,10,19-triazatricyclo[10.5.2.0^{15,18}]nonadeca-12(19),13,15(18),16-tetraene-4,1′-cyclopropane]-9-one], the IC50 is 525 nM.

On to `COc1cc(C(=O)N2CCC[C@@H](N)C2)cc2nc(-c3cc4ccc5cc4n3CCCCCC[C@@H]3CCN(C3=O)[C@@H]5C)n(C)c12` [Example 113, (2~{R},6~{R})-14-[5-[(3~{R})-3-aminopiperidine-1-carbonyl]-7-methoxy-1-methyl-benzimidazol-2-yl]-2-methyl-3,13-diazatetracyclo[11.5.2.1^{3,6}.0^{16,20}] henicosa-1(19),14,16(20),17-tetraen-21-one], for which the IC50 is 302 nM.

Take `COc1cc(C(=O)N2[C@H]3CC[C@@H]2[C@H](N)C3)cc2nc(-c3cc4ccc5nc4n3C/C=C\CCCCCC(=O)N[C@@H]5C)c(C)n12` [Example 120, (12˜{R})-18-[7-[(1˜{R},2˜{R},4˜{S})-2-amino-7-azabicyclo[2.2.1]heptane-7-carbonyl]-5-methoxy-3-methyl-imidazo[1,2-a]pyridin-2-yl]-12-methyl-1,11,20-triazatricyclo[11.5.2.0^{16,19}]icosa-3,13(20),14,16(19),17-pentaen-10-one]: the IC50 came to 22 nM.

`COc1cc(C(=O)N2[C@H]3CC[C@@H]2[C@H](N)C3)cc2nc(-c3cc4ccc5cc4n3CCCCCCNC(=O)c3ncccc3-5)n(C)c12` [Example 98, 17-[5-[(1~{R},2~{R},4~{S})-2-amino-7-azabicyclo[2.2.1]heptane-7-carbonyl]-7-methoxy-1-methyl-benzimidazol-2-yl]-6,9,16-triazatetracyclo[14.5.2.0^{2,7}.0^{19,23}] tricosa-1(22),2,4,6,17,19(23),20-heptaen-8-one]: the IC50 came out at 122 nM.

Broadly, the IC50 is the concentration needed to halve the response being measured.
